Measurements from patent US12338256B2, “Aza-tetracyclic oxazepine compounds and uses thereof” (Genentech, Inc., priority 2022, dated 2025).
pIC50: −log10 of the molar value. Where two headings read alike, the source gives them in different places.

What was measured:
[1] = tested on: HPAC (homozygous mutant KRAS G12D human pancreatic cell line); assay: KRAS 3D-Cell Proliferation Assay, HPAC (Example 503); type: cell-based; details: Homo sapiens, HPAC, 168 h, HPAC 3D culture, 7 days, CellTiter-Glo 3D; read-out: Prolif HPAC 3D ATP IC50
How it was run: (§1)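 3D culture, ultra-low attachment wells; RPMI-1640/10% FBS/2 mM L-glutamine. Overnight settle, then compound series, 0.3% DMSO final, 7 d, 37° C, 5% CO2. Readout: CellTiter-Glo 3D luminescence. % inhibition vs DMSO (0%) and 1 μM staurosporine (100%); IC50 via 4-parameter Hill.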

[2] = target: KRAS G12D (Homo sapiens, UniProt P01116, G12D); assay: KRAS G12D LoEnz Biochemical Assay, BODIPY-GDP Exchange TR-FRET (Example 500); details: read-out: KRas (G12D) GDP HTRF IC50
KRAS G12D, sequence (P01116 1-188 isoform P01116-2 G12D): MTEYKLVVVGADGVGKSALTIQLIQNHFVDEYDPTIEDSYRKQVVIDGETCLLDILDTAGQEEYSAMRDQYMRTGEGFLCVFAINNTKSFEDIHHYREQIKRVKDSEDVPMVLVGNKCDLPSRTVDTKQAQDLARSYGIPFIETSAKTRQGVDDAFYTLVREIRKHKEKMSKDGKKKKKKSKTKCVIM
Method: Example 500: KRAS G12D LoEnz Biochemical Assay, BODIPY-GDP Exchange TR-FRET. Biochemical compound potencies are assessed by evaluating inhibition of SOS1-mediated nucleotide exchange in KRAS G12D. In this assay, the SOS1-promoted exchange of fluorescently-labeled GDP (BOPIDY-GDP) is monitored by time-resolved fluorescence resonance energy transfer (TR-FRET). Compounds solubilized in DMSO are dispensed as concentration series into 384-well white assay plates. A preformed complex of biotin-tagged recombinant human KRAS (0.06 nM mutant G12D) and 0.06 nM terbium-labeled streptavidin (CisBIO) prepared in 10 uL/well assay buffer (20 mM HEPES, pH 7.5, 50 mM NaCl, 10 mM MgCl2, 0.01% Tween-20 and 1 mM dithiothreitol) is added and allowed to incubate for 10-minutes at room temperature. The reaction is initiated with the addition of 5 uL 300 nM recombinant human SOS1 and 300 nM BODIPY-GDP in assay buffer. After a 120-minute incubation, the fluorescence is measured with excitation at 337 nm and emission at 490 and 520 nm. The TR-FRET ratio is determined as the fluorescence at 520 nm divided by the fluorescence at 490 nm multiplied by 10,000. The results are normalized to percent inhibition based on control samples: DMSO (0% inhibition) and control compound at a concentration that inhibits completely (100% inhibition). The normalized TR-FRET results are plotted against compound concentration, and the data are fit to a 4-parameter Hill equation to determine the IC50 values.

[3] = target: T1, KRAS WT (Homo sapiens, UniProt P01116); assay: KRAS WT Biochemical Assay, BODIPY-GDP Exchange TR-FRET (Example 502; 0.06 nM KRAS WT, 15 nM GDP, 300 nM SOS1, 120-minute incubation); details: SOS1-mediated BODIPY-GDP exchange, read-out: KRas HTRF IC50
T1 sequence (P01116 1-188 isoform P01116-2): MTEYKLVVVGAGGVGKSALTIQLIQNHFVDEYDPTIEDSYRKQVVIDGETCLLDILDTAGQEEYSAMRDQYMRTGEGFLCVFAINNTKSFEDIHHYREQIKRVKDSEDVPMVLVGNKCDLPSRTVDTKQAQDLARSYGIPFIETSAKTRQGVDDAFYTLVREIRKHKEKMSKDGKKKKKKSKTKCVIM
Method: Example 502: KRAS WT Biochemical Assay, BODIPY-GDP Exchange TR-FRET. Biochemical compound potencies are assessed by evaluating inhibition of SOS1-mediated nucleotide exchange in KRAS WT. In this assay, the SOS1-promoted exchange of fluorescently-labeled GDP (BOPIDY-GDP) is monitored by time-resolved fluorescence resonance energy transfer (TR-FRET). Compounds solubilized in DMSO are dispensed as concentration series into 384-well white assay plates. A preformed complex of 0.06 nM biotin-tagged recombinant human KRAS WT, 15 nM GDP and 0.06 nM terbium-labeled streptavidin (CisBIO) prepared in 10 uL/well assay buffer (20 mM HEPES, pH 7.5, 50 mM NaCl, 10 mM MgCl2, 0.01% Tween-20 and 1 mM dithiothreitol) is added and allowed to incubate for 10-minutes at room temperature. The reaction is initiated with the addition of 5 uL 300 nM recombinant human SOS1 and 300 nM BODIPY-GDP in assay buffer. After a 120-minute incubation, the fluorescence is measured with excitation at 337 nm and emission at 490 and 520 nm. The TR-FRET ratio is determined as the fluorescence at 520 nm divided by the fluorescence at 490 nm multiplied by 10,000. The results are normalized to percent inhibition based on control samples: DMSO (0% inhibition) and control compound at a concentration that inhibits completely (100% inhibition). […]

[4] = tested on: H1975 (KRAS wild type human lung adenocarcinoma cell line); assay: KRAS 3D-Cell Proliferation Assay, H1975 (Example 503); type: cell-based; details: Homo sapiens, NCI-H1975, 168 h, H1975 3D culture, 7 days, CellTiter-Glo 3D; read-out: Prolif H1975 3D ATP IC50
How it was run: as §1

[5] = target: T1, KRAS WT; assay: KRAS WI Biochemical Assay, BODIPY-GDP Exchange TR-FRET (Example 501; 3 nM KRAS WT, 3 nM SOS1, 60-minute incubation)
Method: Example 501: KRAS WI Biochemical Assay, BODIPY-GDP Exchange TR-FRET. Biochemical compound potencies are assessed by evaluating inhibition of SOS1-mediated nucleotide exchange in KRAS WT. In this assay, the SOS1-promoted exchange of fluorescently-labeled GDP (BOPIDY-GDP) is monitored by time-resolved fluorescence resonance energy transfer (TR-FRET). Compounds solubilized in DMSO are dispensed as concentration series into 384-well white assay plates, and 5 uL assay buffer (20 mM HEPES, pH 7.5, 50 mM NaCl, 10 mM MgCl2, 0.01% Tween-20 and 1 mM dithiothreitol) is added just prior to the start of the assay. A preformed complex of 3 nM biotin-tagged recombinant human KRAS WT and 0.3 nM terbium-labeled streptavidin (CisBIO) prepared in 5 uL/well assay buffer is added and allowed to incubate for 10-minutes at room temperature. The reaction is initiated with the addition of 5 uL 3 nM recombinant human SOS1 and 300 nM BODIPY-GDP in assay buffer. After a 60-minute incubation, the fluorescence is measured with excitation at 337 nm and emission at 490 and 520 nm. The TR-FRET ratio is determined as the fluorescence at 520 nm divided by the fluorescence at 490 nm multiplied by 10,000. The results are normalized to percent inhibition based on control samples: DMSO (0% inhibition) and control compound at a concentration that inhibits completely (100% inhibition). The normalized TR-FRET results are plotted against compound concentration, and the data are fit to a 4-parameter Hill equation to determine the IC50 values.

[6] = tested on: AsPC-1 (homozygous mutant KRAS G12D human pancreatic cell line); assay: KRAS 3D-Cell Proliferation Assay, AsPC-1 (Example 503); type: cell-based; details: Homo sapiens, ASPC1, 168 h, AsPC-1 3D culture, 7 days, CellTiter-Glo 3D; read-out: Prolif AsPC-1 3D ATP IC50
How it was run: as §1

[7] = tested on: PC-9 (KRAS wild type human lung adenocarcinoma cell line); assay: KRAS 3D-Cell Proliferation Assay, PC-9 (Example 503); type: cell-based; details: 168 h, PC-9 3D culture, 7 days, CellTiter-Glo 3D, read-out: Prolif PC9 3D ATP IC50
How it was run: as §1

[8] = SOS1-mediated BODIPY-GDP exchange, read-out: KRas(wt) GDP HTRF IC50
[9] = SOS1-mediated BODIPY-GDP exchange TR-FRET, read-out: KRas HTRF IC50
[10] = SOS1-mediated BODIPY-GDP exchange TR-FRET

Row | Structure (SMILES) | pIC50 [1] | pIC50 ([2]; BODIPY-GDP exchange) | pIC50 [3] | pIC50 [4] | pIC50 [5, 8] | pIC50 [6] | pIC50 [5, 9] | pIC50 [2, 10] | pIC50 [7]
1 | Cc1c(F)c(N)cc(-c2nc3c4c(nc(OC[C@H]5CC[C@@H]6C(=O)N(C)CCN56)nc4c2F)N2C[C@H]4CC[C@H](N4)[C@H]2[C@H](C)O3)c1C(F)(F)F (relative stereo) [Compound 123, 6-((((5S,5aS,6S,9R)-2-(5-Amino-4-fluoro-3-methyl-2-(trifluoromethyl)phenyl)-1-fluoro-5-methyl-5a,6,7,8,9,10-hexahydro-5H-4-oxa-3,10a,11,13,14-pentaaza-6,9-methanonaphtho[1,8-ab]heptalen-12-yl)oxy)methyl)-2-methylhexahydropyrrolo[1,2-a]pyrazin-1(2H)-one] | 7.20 | 9.15 | 6.74 | 4.86 |  |  |  |  | 
2 | Fc1c(-c2cccc3cccc(Cl)c23)nc2c3c(ncnc13)N1C[C@H]3CC[C@H](N3)[C@H]1CO2 [Compound 53, (5aS,6S,9R)-2-(8-Chloronaphthalen-1-yl)-1-fluoro-5a,6,7,8,9,10-hexahydro-5H-4-oxa-3,10a,11,13,14-pentaaza-6,9-methanonaphtho[1,8-ab]heptalene] |  |  |  |  | ≤ 3.70 |  |  |  | 
3 | Cc1nc(N)c(F)c(-c2nc3c4c(nc(OC[C@@]56CCCN5CC5(CC5(F)F)C6)nc4c2F)N2C[C@H]4CC[C@H](N4)[C@H]2[C@H](C)O3)c1C(F)(F)F (stereo partly drawn) [Compound 221, 4-((5S,5aS,6S,9R)-12-(((7a′S)-2,2-Difluorodihydro-1′H,3′H-spiro[cyclopropane-1,2′-pyrrolizin]-7a′(5′H)-yl)methoxy)-1-fluoro-5-methyl-5a,6,7,8,9,10-hexahydro-5H-4-oxa-3,10a,11,13,14-pentaaza[6,9]methanonaphtho[1,8-ab]heptalene-2-yl)-3-fluoro-6-methyl-5-(trifluoromethyl)pyridin-2-amine] | 8.84 |  |  | 6.30 |  | 8.92 | 8.00 | 9.41 | 
4 | Cc1c(F)c(N)cc(-c2nc3c4c(nc(OC[C@@]56CCCN5C[C@H](F)C6)nc4c2F)N2C[C@H]4CC[C@H](N4)[C@H]2[C@@H](C(F)(F)F)O3)c1C(F)(F)F [Compound 246, 2-Fluoro-5-((5S,5aS,6S,9R)-1-fluoro-12-(((2R,7aS)-2-fluorotetrahydro-1H-pyrrolizin-7a(5H)-yl)methoxy)-5-(trifluoromethyl)-5a,6,7,8,9,10-hexahydro-5H-4-oxa-3,10a,11,13,14-pentaaza-6,9-methanonaphtho[1,8-ab]heptalene-2-yl)-3-methyl-4-(trifluoromethyl)aniline] | 5.70 |  |  | 4.70 |  |  |  | 6.51 | 
5 | C#Cc1cccc2cc(O)cc(-c3nc4c5c(nc(OC[C@]67CCN6CC(F)(F)C7)nc5c3F)N3C[C@H]5CC[C@H](N5)[C@H]3[C@H](C)O4)c12 (single isomer, unassigned) [Compound 19] | 8.48 | 10.10 |  | 6.66 |  | 8.30 |  |  | 5.06
6 | Cc1c(Cl)c(N)cc(-c2nc3c4c(nc(OC[C@@]56CCCN5C[C@H](F)C6)nc4c2F)N2C[C@H]4CC[C@H](N4)[C@H]2[C@H](C)O3)c1C(F)(F)F (single isomer, unassigned) [Compound 200] | 8.17 |  |  | 6.23 |  |  | 8.17 | 10.00 | 
7 | C[C@@H]1Oc2nc(-c3cc(O)cc4cccc(F)c34)c(F)c3nc(OC[C@@]45CCCN4C[C@H](F)C5)nc(c23)N2C[C@H]3CC[C@H](N3)[C@@H]12 [Compound 9, 5-fluoro-4-((5S,5aS,6S,9R)-1-fluoro-12-(((2R,7aS)-2-fluorotetrahydro-1H-pyrrolizin-7a(5H)-yl)methoxy)-5-methyl-5a,6,7,8,9,10-hexahydro-5H-4-oxa-3,10a,11,13,14-pentaaza-6,9-methanonaphtho[1,8-ab]heptalen-2-yl)naphthalen-2-ol] | 7.94 | 10.24 |  | 5.69 | 8.19 | 7.71 |  |  | 5.11
8 | Nc1nc2c(-c3nc4c5c(ncnc5c3F)N3C[C@H]5CC[C@H](N5)[C@H]3CO4)ccc(F)c2s1 [Compound 55, 7-fluoro-4-((5aS,6S,9R)-1-fluoro-5a,6,7,8,9,10-hexahydro-5H-4-oxa-3,10a,11,13,14-pentaaza-6,9-methanonaphtho[1,8-ab]heptalen-2-yl)benzo[d]thiazol-2-amine] |  |  |  |  | ≤ 3.70 | ≤ 4.70 |  |  | 4.89
9 | Cc1cc(N)c(Cl)c(-c2nc3c4c(nc(OC[C@@]56CCCN5C[C@H](F)C6)nc4c2Cl)N2C[C@H]4CC[C@H](N4)[C@H]2[C@H](C)O3)c1C(F)(F)F (single isomer, unassigned) [240 (atrop. 2)] |  |  |  |  |  | 8.82 |  | 9.85 | 
10 | C[C@@H]1Oc2nc(-c3cc(N)nc4ccccc34)c(F)c3nc(OC[C@]45CCN4CC(F)(F)C5)nc(c23)N2C[C@H]3CC[C@H](N3)[C@@H]12 [Compound 79, 4-((5S,5aS,6S,9R)-12-(((R)-3,3-Difluoro-1-azabicyclo[3.2.0]heptan-5-yl)methoxy)-1-fluoro-5-methyl-5a,6,7,8,9,10-hexahydro-5H-4-oxa-3,10a,11,13,14-pentaaza-6,9-methanonaphtho[1,8-ab]heptalen-2-yl)quinolin-2-amine] |  | 7.64 |  |  |  | 5.39 |  |  | ≤ 4.70
11 | Cc1cc(N)c(Cl)c(-c2nc3c4c(nc(OC[C@@]56CCCN5C[C@H](F)C6)nc4c2F)N2C[C@H]4CC[C@H](N4)[C@H]2[C@H](C)O3)c1C(F)(F)F (single isomer, unassigned) [Compound 199] | 9.01 |  |  | 5.98 |  | 8.39 | 8.02 | 9.77 | 
